Where a name gives a salt, the structure may show the parent alone.
Key:
[1] = tested on: bone marrow CD34-positive cells; conditions: cited from earlier work
LAN5 = conditions: human neuroblastoma cell line LAN5; read-out: cytotoxicity IC50; cited from earlier work
MiaPaCa = conditions: human pancreatic carcinoma MiaPaCa; read-out: cytotoxicity IC50; cited from earlier work
SK-N-AS = conditions: human neuroblastoma cell line SK-N-AS; read-out: cytotoxicity IC50; cited from earlier work
LAN1 = conditions: human neuroblastoma cell line LAN1; read-out: cytotoxicity IC50; cited from earlier work
WAC2 = conditions: human neuroblastoma cell line WAC2; read-out: cytotoxicity IC50; cited from earlier work

| Compound | melting point [°C] | effect on BFU-E and CFU-GM [1] | IC50 (LAN5) [nM] | IC50 (MiaPaCa) [nM] | IC50 (SK-N-AS) [nM] | IC50 (LAN1) [nM] | IC50 (WAC2) [nM] |
| --- | --- | --- | --- | --- | --- | --- | --- |
| CC(C)C1NC(=O)c2coc(n2)-c2coc(n2)-c2coc(n2)C(CCCCN)NC(=O)c2coc(n2)-c2coc(n2)-c2coc1n2 (stereo not shown) (as salt: TFA) [Compound 15, Cyclic Lysine-Valine Amine TFA Salt] | 297 to 300 | – | – | – | – | – | – |
| Cc1oc2nc1-c1nc(co1)-c1nc(co1)-c1nc(co1)-c1nc(co1)-c1nc(co1)C1=NC(CS1)c1nc-2c(C)o1 (stereo not shown) [Telomestatin] | – | much lesser effect | 2500 | 500 | 800 | 4000 | 3200 |
